Where two headings read alike, the source gives them in different places.
What was measured:
Assay in all cases: biochemical
Parameters in all cases: Eurofins KinaseProfiler full panel at Km ATP, residual kinase activity (%) relative to DMSO
CSK(h) = CSK(h) (Homo sapiens, UniProt P41240)
Procedure, shortened: (§1)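 Two 10 µM single-concentration screens were run: a competition-binding screen, in which DNA-tagged kinase bound to immobilized ligands was quantified by qPCR, and a radiometric activity panel at Km ATP. Each is expressed as residual kinase activity (%).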

NDR1(h) = target: T1, NDR1(h) (Homo sapiens, UniProt Q15208)
T1 construct: gene STK38
T1 sequence (Q15208 whole entry): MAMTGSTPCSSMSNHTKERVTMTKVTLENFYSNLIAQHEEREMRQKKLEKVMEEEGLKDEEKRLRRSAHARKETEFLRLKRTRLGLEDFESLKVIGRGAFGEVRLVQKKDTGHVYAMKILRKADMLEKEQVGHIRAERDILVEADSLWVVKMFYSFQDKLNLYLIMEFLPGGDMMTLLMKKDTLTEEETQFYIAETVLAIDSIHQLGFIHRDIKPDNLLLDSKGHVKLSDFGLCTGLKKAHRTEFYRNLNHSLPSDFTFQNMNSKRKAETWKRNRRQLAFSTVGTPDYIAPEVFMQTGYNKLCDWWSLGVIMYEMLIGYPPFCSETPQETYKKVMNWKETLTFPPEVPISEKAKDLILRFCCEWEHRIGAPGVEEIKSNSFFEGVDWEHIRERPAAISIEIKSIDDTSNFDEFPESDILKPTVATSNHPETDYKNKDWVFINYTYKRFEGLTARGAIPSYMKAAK
Procedure, shortened: as §1

MAP4K5(h) = MAP4K5(h) (Homo sapiens, UniProt Q9Y4K4)
Sequence of MAP4K5(h) (Q9Y4K4 whole entry): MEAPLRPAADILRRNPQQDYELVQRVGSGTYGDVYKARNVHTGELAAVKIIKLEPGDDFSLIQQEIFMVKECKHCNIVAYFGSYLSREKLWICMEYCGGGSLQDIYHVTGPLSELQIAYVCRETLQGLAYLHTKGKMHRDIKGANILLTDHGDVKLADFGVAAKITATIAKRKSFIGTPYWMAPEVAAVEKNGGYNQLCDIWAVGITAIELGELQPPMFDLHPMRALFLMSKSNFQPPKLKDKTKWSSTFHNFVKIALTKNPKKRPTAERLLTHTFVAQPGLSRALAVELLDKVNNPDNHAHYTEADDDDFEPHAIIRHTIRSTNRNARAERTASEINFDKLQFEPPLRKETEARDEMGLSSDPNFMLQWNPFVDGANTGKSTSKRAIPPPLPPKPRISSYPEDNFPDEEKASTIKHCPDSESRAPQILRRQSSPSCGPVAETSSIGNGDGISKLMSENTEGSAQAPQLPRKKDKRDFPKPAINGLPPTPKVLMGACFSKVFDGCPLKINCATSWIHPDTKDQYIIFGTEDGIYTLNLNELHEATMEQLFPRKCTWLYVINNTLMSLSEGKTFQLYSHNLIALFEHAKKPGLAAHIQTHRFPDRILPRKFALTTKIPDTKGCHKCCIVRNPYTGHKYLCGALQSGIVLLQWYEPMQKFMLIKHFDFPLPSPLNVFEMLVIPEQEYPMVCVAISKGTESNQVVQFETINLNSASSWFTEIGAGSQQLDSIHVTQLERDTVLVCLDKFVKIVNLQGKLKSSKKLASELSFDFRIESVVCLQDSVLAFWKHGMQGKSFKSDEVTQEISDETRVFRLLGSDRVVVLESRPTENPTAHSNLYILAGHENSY
Procedure, shortened: as §1

PI3KC2g(h) = target: T2, PI3KC2g(h) (Homo sapiens, UniProt O75747)
T2 construct: gene PIK3C2G
T2 sequence (O75747 1-1486): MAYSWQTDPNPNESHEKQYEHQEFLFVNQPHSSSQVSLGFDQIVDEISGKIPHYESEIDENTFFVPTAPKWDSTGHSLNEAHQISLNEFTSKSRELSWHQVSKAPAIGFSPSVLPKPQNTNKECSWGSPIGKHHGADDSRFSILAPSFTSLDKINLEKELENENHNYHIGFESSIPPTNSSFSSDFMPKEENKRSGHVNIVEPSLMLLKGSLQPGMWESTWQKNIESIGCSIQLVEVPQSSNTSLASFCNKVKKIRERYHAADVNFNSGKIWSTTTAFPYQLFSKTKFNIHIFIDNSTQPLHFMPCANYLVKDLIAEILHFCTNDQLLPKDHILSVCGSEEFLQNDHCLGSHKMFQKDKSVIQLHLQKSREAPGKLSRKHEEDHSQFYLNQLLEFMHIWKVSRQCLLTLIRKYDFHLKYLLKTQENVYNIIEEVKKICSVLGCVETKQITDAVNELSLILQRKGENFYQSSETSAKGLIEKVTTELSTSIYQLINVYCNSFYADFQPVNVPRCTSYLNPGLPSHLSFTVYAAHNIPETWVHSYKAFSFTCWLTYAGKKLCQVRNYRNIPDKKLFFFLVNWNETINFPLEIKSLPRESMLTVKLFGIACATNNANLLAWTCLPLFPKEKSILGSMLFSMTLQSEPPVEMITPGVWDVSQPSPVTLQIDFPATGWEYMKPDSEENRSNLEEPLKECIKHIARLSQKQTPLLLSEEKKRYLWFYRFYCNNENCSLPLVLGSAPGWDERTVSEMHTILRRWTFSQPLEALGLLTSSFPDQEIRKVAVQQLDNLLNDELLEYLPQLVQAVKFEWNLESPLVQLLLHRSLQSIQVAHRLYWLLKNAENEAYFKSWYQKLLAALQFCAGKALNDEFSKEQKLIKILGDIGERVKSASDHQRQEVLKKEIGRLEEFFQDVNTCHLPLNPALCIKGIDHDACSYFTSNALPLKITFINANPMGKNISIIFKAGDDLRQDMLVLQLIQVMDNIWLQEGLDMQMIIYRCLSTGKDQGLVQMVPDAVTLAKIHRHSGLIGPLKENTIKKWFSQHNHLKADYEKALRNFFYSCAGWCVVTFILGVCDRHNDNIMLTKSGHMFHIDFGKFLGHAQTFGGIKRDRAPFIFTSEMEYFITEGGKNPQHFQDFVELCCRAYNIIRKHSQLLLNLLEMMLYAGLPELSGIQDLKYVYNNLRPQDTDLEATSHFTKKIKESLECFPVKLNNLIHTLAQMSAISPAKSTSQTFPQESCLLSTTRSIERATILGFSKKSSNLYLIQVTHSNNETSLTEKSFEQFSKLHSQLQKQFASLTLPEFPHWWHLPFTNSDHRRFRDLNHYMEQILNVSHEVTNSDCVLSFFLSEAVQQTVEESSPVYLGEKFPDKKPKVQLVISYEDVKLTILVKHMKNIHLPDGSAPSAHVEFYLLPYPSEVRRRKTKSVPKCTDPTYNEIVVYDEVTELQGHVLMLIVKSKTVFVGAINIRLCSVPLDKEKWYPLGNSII
Procedure, shortened: as §1

Blk(m) = Blk(m) (Mus musculus, UniProt P16277)
Sequence of Blk(m) (P16277 whole entry): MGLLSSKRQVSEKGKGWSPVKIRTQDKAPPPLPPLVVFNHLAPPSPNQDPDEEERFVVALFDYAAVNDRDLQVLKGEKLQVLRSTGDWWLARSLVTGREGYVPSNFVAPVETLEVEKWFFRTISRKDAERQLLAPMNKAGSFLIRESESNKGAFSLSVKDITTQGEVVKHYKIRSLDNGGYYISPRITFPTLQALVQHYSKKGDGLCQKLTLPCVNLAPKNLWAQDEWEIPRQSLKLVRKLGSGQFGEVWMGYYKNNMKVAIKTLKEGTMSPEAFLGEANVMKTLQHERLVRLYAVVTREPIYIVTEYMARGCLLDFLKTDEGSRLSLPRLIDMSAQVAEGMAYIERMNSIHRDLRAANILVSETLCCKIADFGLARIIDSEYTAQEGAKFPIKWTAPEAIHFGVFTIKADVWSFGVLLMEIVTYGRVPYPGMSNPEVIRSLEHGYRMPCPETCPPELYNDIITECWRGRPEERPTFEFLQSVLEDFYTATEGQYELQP
Procedure, shortened: as §1

PhKγ2(h) = target: T3, PhKγ2(h) (Homo sapiens, UniProt P15735)
T3 construct: gene PHKG2
T3 sequence (P15735 1-406): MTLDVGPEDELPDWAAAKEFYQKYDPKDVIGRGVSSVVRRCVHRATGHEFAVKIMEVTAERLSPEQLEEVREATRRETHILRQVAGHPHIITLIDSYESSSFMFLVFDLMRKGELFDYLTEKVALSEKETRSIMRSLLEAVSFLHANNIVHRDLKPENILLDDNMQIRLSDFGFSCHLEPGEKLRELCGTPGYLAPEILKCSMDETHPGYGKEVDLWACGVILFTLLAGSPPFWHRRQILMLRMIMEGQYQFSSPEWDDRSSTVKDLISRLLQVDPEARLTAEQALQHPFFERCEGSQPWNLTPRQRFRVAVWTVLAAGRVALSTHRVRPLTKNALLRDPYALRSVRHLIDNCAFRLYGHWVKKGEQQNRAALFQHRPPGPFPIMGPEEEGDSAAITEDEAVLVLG
Procedure, shortened: as §1

cKit(h) = target: T4, cKit(h) (Homo sapiens, UniProt P10721)
T4 construct: gene KIT
T4 sequence (P10721 whole entry): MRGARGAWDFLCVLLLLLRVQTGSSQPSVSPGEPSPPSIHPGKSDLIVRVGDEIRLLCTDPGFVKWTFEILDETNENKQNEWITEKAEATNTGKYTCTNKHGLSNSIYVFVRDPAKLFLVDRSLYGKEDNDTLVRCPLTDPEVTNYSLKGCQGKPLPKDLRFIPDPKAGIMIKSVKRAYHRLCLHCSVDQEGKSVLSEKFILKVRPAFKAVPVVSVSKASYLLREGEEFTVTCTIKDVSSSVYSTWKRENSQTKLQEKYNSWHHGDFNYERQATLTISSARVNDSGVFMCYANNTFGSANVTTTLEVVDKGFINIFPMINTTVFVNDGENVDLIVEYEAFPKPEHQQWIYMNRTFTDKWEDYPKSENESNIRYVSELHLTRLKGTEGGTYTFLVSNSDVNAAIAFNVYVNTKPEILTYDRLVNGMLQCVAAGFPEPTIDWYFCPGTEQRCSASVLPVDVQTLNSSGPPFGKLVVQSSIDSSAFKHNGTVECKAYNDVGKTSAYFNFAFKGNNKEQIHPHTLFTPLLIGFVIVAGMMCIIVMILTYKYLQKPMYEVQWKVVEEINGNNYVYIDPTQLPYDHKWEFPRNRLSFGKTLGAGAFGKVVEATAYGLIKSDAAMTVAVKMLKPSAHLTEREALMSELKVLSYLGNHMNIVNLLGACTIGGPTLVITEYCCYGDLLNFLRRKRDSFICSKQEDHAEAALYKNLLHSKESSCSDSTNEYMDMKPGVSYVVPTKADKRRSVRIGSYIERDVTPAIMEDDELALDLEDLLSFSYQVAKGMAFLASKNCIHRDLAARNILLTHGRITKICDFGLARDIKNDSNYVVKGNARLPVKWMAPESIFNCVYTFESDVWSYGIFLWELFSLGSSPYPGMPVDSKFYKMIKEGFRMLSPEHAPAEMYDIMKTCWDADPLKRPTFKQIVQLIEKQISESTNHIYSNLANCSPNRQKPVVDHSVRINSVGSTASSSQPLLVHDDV
Procedure, shortened: as §1

[1] = read-out: Residual activity (%) Spautin-1 5aa
[2] = read-out: Residual activity (%) 5as
[3] = read-out: Residual activity (%) 5at
[4] = read-out: Residual activity (%) 5ay

Sequence of CSK(h) (P41240 whole entry): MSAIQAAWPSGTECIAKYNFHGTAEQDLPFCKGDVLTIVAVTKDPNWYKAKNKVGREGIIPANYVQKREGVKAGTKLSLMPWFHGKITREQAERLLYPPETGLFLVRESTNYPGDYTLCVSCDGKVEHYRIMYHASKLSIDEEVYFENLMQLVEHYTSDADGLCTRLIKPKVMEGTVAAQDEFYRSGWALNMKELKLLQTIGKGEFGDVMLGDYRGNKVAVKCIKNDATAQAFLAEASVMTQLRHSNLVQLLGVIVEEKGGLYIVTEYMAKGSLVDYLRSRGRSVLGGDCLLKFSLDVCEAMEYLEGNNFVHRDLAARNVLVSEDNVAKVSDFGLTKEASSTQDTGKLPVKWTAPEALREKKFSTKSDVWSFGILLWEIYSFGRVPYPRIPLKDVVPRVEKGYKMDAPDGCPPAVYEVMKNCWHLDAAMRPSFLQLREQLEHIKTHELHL

Q: Which results are given for `Fc1ccc(CNc2ncnc3ccc(F)cc23)cc1` [5aa, 6-Fluoro-N-(4-fluorobenzyl)-4-Quinazolinamine]?
A: remaining activity at 10 µM (CSK(h); [1]): 82%; remaining activity at 10 µM (NDR1(h); [1]): 108%; remaining activity at 10 µM (MAP4K5(h); [1]): 92%; remaining activity at 10 µM (PI3KC2g(h); [1]): 70%; remaining activity at 10 µM (Blk(m); [1]): 91%; remaining activity at 10 µM (PhKγ2(h); [1]): 78%; remaining activity at 10 µM (cKit(h); [1]): 93%

Q: Which results are given for `Fc1ccc(CCNc2ncnc3ccc(F)cc23)cc1` [5as, 6-Fluoro-N-[2-(4-Fluorophenyl)Ethyl]-4-Quinazolinamine]?
A: remaining activity at 10 µM (CSK(h); [2]): 85%; remaining activity at 10 µM (NDR1(h); [2]): 96%; remaining activity at 10 µM (MAP4K5(h); [2]): 89%; remaining activity at 10 µM (PI3KC2g(h); [2]): 57%; remaining activity at 10 µM (Blk(m); [2]): 100%; remaining activity at 10 µM (PhKγ2(h); [2]): 91%; remaining activity at 10 µM (cKit(h); [2]): 78%

Q: Which remaining activity at 10 µM (CSK(h); [3]) does the source give for `Fc1ccc2ncnc(NCCc3ccc(Cl)cc3)c2c1` [5at, N-[2-(4-Chlorophenyl)Ethyl]-6-Fluoro-4-Quinazolinamine] here?
A: 79%

Q: And the remaining activity at 10 µM (NDR1(h); [3])?
A: 89%

Q: What about the remaining activity at 10 µM (MAP4K5(h); [3]) of the same compound?
A: 97%

Q: What about the remaining activity at 10 µM (PI3KC2g(h); [3]) of the same compound?
A: 34%

Q: What about the remaining activity at 10 µM (Blk(m); [3]) of the same compound?
A: 98%

Q: What about the remaining activity at 10 µM (PhKγ2(h); [3]) of the same compound?
A: 82%

Q: And the remaining activity at 10 µM (cKit(h); [3])?
A: 71%

Q: Which results are given for `COc1ccc2ncnc(Nc3cccc(F)c3)c2c1` [5ay, N-(3-Fluorophenyl)-6-Methoxy-4-Quinazolinamine]?
A: remaining activity at 10 µM (CSK(h); [4]): 91%; remaining activity at 10 µM (NDR1(h); [4]): 98%; remaining activity at 10 µM (MAP4K5(h); [4]): 80%; remaining activity at 10 µM (PI3KC2g(h); [4]): 40%; remaining activity at 10 µM (Blk(m); [4]): 102%; remaining activity at 10 µM (PhKγ2(h); [4]): 109%; remaining activity at 10 µM (cKit(h); [4]): 83%

From paper PMC7827406, “Structure–Activity Relationship (SAR) Study of Spautin-1 to Entail the Discovery of Novel NEK4 Inhibitors” (International Journal of Molecular Sciences, 2021)
